This is an account of results in patent publication US5064833A, “Substituted quinazoline derivatives for use in gastrointestinal diseases” (Smithkline Beecham Intercredit B.V., priority 1989, dated 1991).

Structures can show the parent of a compound that is named as a salt.

In one test the test system is pentagastrin stimulated gastric acid secretion. Kind of test: Rat lumen perfused stomach (pentagastrin stimulated gastric acid secretion). The test is classed as in vivo. Conditions: iv, i.v. administration, 10 μmole/kg, read-out: Rat G.S. % inhibition @ 10 μmole/kg. The text has this: Using a modification of the procedure described by Ghosh and Schild (Br. J. Pharmacology, 13, 54, 1958), the compounds of the following Examples were found on i.v. administration at a concentration of 10 μmole/kg to cause an inhibition of pentagastrin stimulated gastric acid secretion as indicated in the following Table.
As to `Cc1ccccc1Nc1nc(NCCc2ccccc2)nc2ccccc12` [Example 16, 2-phenylethylamino-4-(2-methylphenylamino)quinazoline], the inhibition in vivo at 10 µmol/kg is 31%.

On to `COc1cccc2c(Nc3ccccc3C)nc(N(C)c3ccccc3)nc12` [Example 21, 2-(N-methylphenylamino)-4-(2-methylphenylamino)-8-methoxyquinazoline], for which the inhibition in vivo at 10 µmol/kg was found to be 37%.

For `COc1cccc2c(Nc3ccccc3C)nc(N(C)C)nc12` [Example 5, 2-dimethylamino-8-methoxy-4-(2-methylphenylamino)quinazoline], the inhibition in vivo at 10 µmol/kg was 37%.

For the compound `Cc1ccccc1CNc1nc(N(C)c2ccccc2)c2ccccc2n1` [Example 31, 2-(2-methvlbenzylamino)-4-(N-methylphenylamino)quinazoline hydrochloride], the inhibition in vivo at 10 µmol/kg stood at 8%.

For `Cc1ccccc1Nc1nc(N)nc2c(C)cccc12` [Example 6, 2-amino-8-methyl-4-(2-methylphenylamino)quinazoline], the inhibition in vivo at 10 µmol/kg came to 48%.

In the case of `Cc1ccccc1Nc1nc(N2CCCC2)nc2ccccc12` [Example 8, 2-pyrrolidino-4-(2-methylphenylamino)quinazoline], the inhibition in vivo at 10 µmol/kg was 17%.

As to `COc1cccc2c(N(C)c3ccccc3)nc(Nc3ccccc3C)nc12` [Example 24, 4-(N-methylphenylamino)-2-(2-methylphenylamino)-8-methoxyquinazoline], the inhibition in vivo at 10 µmol/kg stood at 97%.

For `COc1ccc(Nc2nc(N)nc3c(OC)cccc23)c(C)c1` [Example 3, 2-amino-8-methoxy-4-(2-methyl-4-methoxyphenylamino)quinazoline], the inhibition in vivo at 10 µmol/kg is 16%.

Regarding `Cc1cc(F)ccc1Nc1nc(N(C)c2ccccc2)c2ccccc2n1` [Example 32, 2-(2-methyl-4-fluorophenyl)amino]-4-(N-methylphenylamino)quinazoline hydrochloride], the inhibition in vivo at 10 µmol/kg stood at 96%.

`COc1cccc2c(NCc3ccccc3)nc(N)nc12` [Example 2, 2-amino-8-methoxy-4-benzylaminoquinazoline]: the inhibition in vivo at 10 µmol/kg turned out to be 25%.

With `COc1cccc2c(Nc3ccccc3C)nc(N)nc12` [Example 1, 2-amino-8-methoxy-4-(2-methylphenylamino)quinazoline], the inhibition in vivo at 10 µmol/kg came out at 60%.

On to `COc1ccccc1Nc1nc(N)nc2c(OC)cccc12` [Example 18, 2-amino-8-methoxy-4-(2-methoxyphenylamino)quinazoline], for which the inhibition in vivo at 10 µmol/kg amounted to 12%.

For `CN(c1ccccc1)c1nc(Nc2ccccc2)nc2ccccc12` [Example 27, 2-phenylamino-4-(N-methylphenylamino)quinazoline hydrochloride], the inhibition in vivo at 10 µmol/kg turned out to be 71%.

On to `Cc1ccccc1Nc1nc(N(C)c2ccccc2)c2ccccc2n1` [Example 26, 2-(2-methylphenylamino)-4-(N-methylphenylamino)quinazoline hydrochloride], for which the inhibition in vivo at 10 µmol/kg stood at 79%.

In the case of `Cc1cc(O)ccc1Nc1nc(N(C)c2ccccc2)c2ccccc2n1` [Example 30, 2-(4-hydroxy-2-methylphenyl)amino1-4-(N-methylphenylamino) quinazoline hydrochloride], the inhibition in vivo at 10 µmol/kg worked out at 23%.

On to `Cc1ccccc1Nc1nc(N)nc2ccccc12` [Example 7, 2-amino-4-(2-methylphenylamino)quinazoline], for which the inhibition in vivo at 10 µmol/kg stood at 20%.

Consider `COc1cccc2c(Nc3ccccc3C)nc(N3CCCC3)nc12` [Example 15, 2-pyrrolidino-8-methoxy-4-(2-methylphenylamino)quinazoline], for which the inhibition in vivo at 10 µmol/kg amounted to 31%.

Regarding `CNc1nc(Nc2ccccc2C)c2cccc(OC)c2n1` [Example 13, 2-methylamino-8-methoxy-4-(2-methylphenylamino)quinazoline], the inhibition in vivo at 10 µmol/kg amounted to 20%.

For `COc1cccc2c(NCc3ccccc3C)nc(N)nc12` [Example 4, 2-amino-8-methoxy-4-(2-methylbenzylamino)quinazoline], the inhibition in vivo at 10 µmol/kg is 37%.

As for `Cc1ccccc1Nc1nc(N(C)c2ccccc2)nc2ccccc12` [Example 22, 2-(N-methylphenylamino)-4-(2-methylphenylamino)quinazoline hydrochloride], the inhibition in vivo at 10 µmol/kg came to 27%.

Turning to `COc1cccc2c(N(C)c3ccccc3)nc(N)nc12` [Example 29, 2-amino-4-(N-methylphenylamino)-8-methoxyquinazoline hydrochloride], the inhibition in vivo at 10 µmol/kg worked out at 13%.

Turning to `Cc1ccccc1CNc1nc(N)nc2ccccc12` [Example 25, 2-amino-4-(2-methylbenzylamino)quinazoline], the inhibition in vivo at 10 µmol/kg amounted to 24%.

Turning to `CN(c1ccccc1)c1nc(N(C)c2ccccc2)c2ccccc2n1` [Example 20, 2,4-Bis-(N-methylphenylamino)quinazoline hydrochloride], the inhibition in vivo at 10 µmol/kg amounted to 72%.

For `CCc1ccc2nc(N)nc(Nc3ccccc3C)c2c1` [Example 11, 2-amino-4-(2-methylphenylamino)-6-ethylquinazoline], the inhibition in vivo at 10 µmol/kg amounted to 28%.

The next test has as its system isolated rat osteoclasts. Kind of test: Bone resorption by isolated rat osteoclasts on cortical bone slices. Format: cell-based. Conditions: Osteoclast, 10 μM, 18 hours, control = 100 ± 27, Mean ± SEM, n = 12. How it is done:
Bone resorption was measured by the actions of isolated rat osteoclasts on cortical bone slices (Zaidi et al Quarterly Journal of Experimental Physiology 1988 73:471-485). Newborn Wistar rats were killed by decapitation and their femora and tibiae removed. Osteoclasts were mechanically disaggregated by curetting the bones into medium followed by agitation with a pipette. Osteoclasts were separated from other cells by sedimentation onto bone slices (15 minutes, 37°) after which the slices were removed and gently washed. The bone slices were then incubated in the presence of test compounds (37°, 10% humidified CO2, 18 hours) and fixed with glutaraldehyde. The degree of bone resorption was then assessed by the area of erosions produced by the osteoclasts using scanning electron microscopy. Data were meaned from measurements of 6 bone slices in each of two independent experiments.
Test compounds were dissolved in ethanol which was also added to control incubations (1%) in the absence of compound.
As to `Cc1cc(F)ccc1Nc1nc(N(C)c2ccccc2)c2cc(O)ccc2n1` [Example 56, 4-(N-methylphenylamino)-2-[(2-methyl-4-fluorophenyl)amino]-6-hydroxyquinazoline hydrochloride], the activity at 10 µM is 7 ± 4%.

Staying with this test, now noted: Osteoclast, 100 μM, 18 hours, control = 100 ± 27, Mean ± SEM, n = 12.
`Cc1cc(F)ccc1Nc1nc(N(C)c2ccccc2)c2cc(O)ccc2n1` [Example 56, 4-(N-methylphenylamino)-2-[(2-methyl-4-fluorophenyl)amino]-6-hydroxyquinazoline hydrochloride] returned an activity at 100 µM of 7%.
